Assay results published in patent US8552013B2, “Heterocyclic compounds based on N6-substituted adenine, methods of their preparation, their use for preparation of drugs, cosmetic preparations and growth regulators, pharmaceutical preparations, cosmetic preparations and growth regulators containing these compounds” (USTAV Experimentalni Botaniky Akademie Ved Ceske Republiky, priority 2001, dated 2013).
pIC50: −log10 of the molar value. Entries after “also recorded” stand apart in the source; their conditions may differ.

Experiments:
human skin fibroblasts [1] = assay: Series of experiments on short-term effects on human skin fibroblasts, conclusion; format: cell-based; conditions: para at a dose of 40 μM
Protocol: (§1) All experiments were performed on early and mid passage cultures (about 20 to 40% lifespan completed) of normal human adult skin fibroblast line; designated ASF-2 & Senetek cell line (about 10-90% lifespan completed); designated as SF20. In order to check the effects of test compounds on senescent cells, late passage cells with more than 95% lifespan completed were used. ASF-2 and SF20 cell lines were established from a mammary skin biopsy obtained from a young, non-smoking and healthy […] at the time of breast reduction operation. Normal culture conditions of medium (DMEM) containing antibiotics, 10% foetal calf serum, and incubation at 37° C. with 95% humidity were used. The effects of the test chemicals were determined in the following conditions:
The experiments were performed to determine the effects of short-term treatment of ortho-topolin, meta-topolin, and para-topolin on cell attachment, survival, growth, apoptosis, actin cytoskeletal pattern, lysosomal activity, proteasomal activity and morphology of human skin fibroblasts in culture.

human skin fibroblasts [2] = assay: Cell attachment of human skin fibroblasts; format: cell-based
Protocol: as §1, with “conditions: […]” for “conditions:”

human skin fibroblasts [3] = assay: beta-galactosidase staining of treated skin fibroblasts; format: cell-based; conditions: short-term growth treatment
[4] = tested on: senescent human skin fibroblasts; assay: Numbers of surviving senescent cells (Coulter counter); format: cell-based
Protocol: Equal numbers of senescent cells were seeded in separate flasks and were treated with different concentrations of para-topolin. Cell numbers were determined by using a Coulter counter after trpsinization and resuspension of cells after 7 and 14 days of treatment.
Equal numbers of senescent cells were seeded in separate flasks and were treated with different concentrations of ortho-topolin. Cell numbers were determined by using a Coulter counter after trypsinisation and resuspension of cells, after 7 and 14 days of treatment.

[5] = tested on: lysosomes of fibroblast cells; assay: Lysosomal activity, neutral red uptake; format: cell-based, human
Protocol: Neutral Red is preferentially taken up into the lysosomes of the cell. Fibroblast cells are maintained in culture and exposed to test compounds over a range of concentrations. The cultures are visually examined after 72 hours, and the number of viable cells and/or the total cell protein content determined, after 72 hours exposure, by the Neutral Red Uptake method. Advantage of Neutral Red assay is that it detects only viable cells. Any chemical having a localized effect upon the lysosomes will, therefore, result in an artificially low (or possibly high) reflection of cell viability and cell number. This factor does, however, make the system useful to detect those compounds which selectively affect the lysosomes, especially when it is used in conjunction with other tests capable of determining cell number.
The NR assay has been applied to evaluation and ranking the cytotoxicity of a spectrum of compounds. Individual wells of a 96-well tissue culture microtiter plate were inoculated with 0.2 ml of the appropriate media containing cells (usually 3×10^3 cells). After 1 to 2 days of incubation, the media were removed and replaced with unamended (control) medium or with medium amended with varied concentrations of the compound to be tested. After 3 days of exposure to the compound, media were removed and replaced with media containing 0.001% NR. The assay plate was then returned to the incubator for another 3 h to allow for uptake of the supravital dye into the lysosomes of viable cells. Thereafter, the media were removed and the cells were rapidly washed with 0.5% formaldehyde-1% CaCl2 followed by 0.2 ml of a solution of 1% acetic acid-50% ethanol to extract the dye from the cells. After 10 min at room temperature and a brief but rapid agitation on a microtiter plate shaker, the plates were transferred to a microplate spectrophotometer equipped with a 540-nm filter to measure the absorbance of the extracted dye.
The toxicities of the various compounds were compared with those of the control cultures by computing the data obtained.

[6] = tested on: senescent human skin fibroblasts; assay: Morphology of senescent cells; format: cell-based
Protocol: as §1
Senescent human skin fibroblasts were treated with various doses of para-topolin to see if this treatment could reverse age-related alterations in their morphology. […] The cells progressively became heterogeneous with large and flattened appearance.

[7] = tested on: senescent human skin fibroblasts; assay: Actin staining of senescent cells (FITC-Phalloidin); format: cell-based; conditions: after 3 days; meta 40 μM
Source text: Actin staining: The pattern of cytoskeletal actin staining was studied by staining the cells with florescent ligand FITC-labelled Phalloidin, using a fluorescence microscope

[8] = tested on: human adult skin fibroblasts; assay: Short-term growth of human skin fibroblasts (cell counts, Giemsa); format: cell-based
Protocol: as §1
Short-term growth experiments were performed using 24-well tissue culture plates (growth area 1.9 cm^2). Freshly prepared cell suspensions from mass cultures of ASF-2 cells maintained in our labs were used. About 10,000 cells were seeded into 6 sets of 24-well plates. The cells were allowed to attach and stabilize for 24 hr in normal culture medium to achieve various final concentrations (range 40 to 500 μM). Culture medium was changed with the addition of test chemicals twice a week. The numbers of cells were counted after different days of treatment in 2 wells from each concentration of the test chemical, by following the normal method of cell trypsinization and counting using a Coultercounter. The third well in each category was fixed by cold methanol and stained with Giemsa stain for permanent record and for photography. The experiment was carried on for until the cultures became fully confluent and no further growth was possible.

human skin fibroblasts [9] = assay: Cell survival, MTT assay; format: cell-based; conditions: 3 days
Protocol: Cell survival after exposure to various doses was measured with the 3-(4,5 dimethylthiazol-2-yl)-2,5-diphenyltetrazolium bromide (MTT) assay. About 5,000 cells were seeded per well in a 96-well plate 24 h before the experiment. Cells were then treated with various doses of the compound to be tested. The wells were washed in Hank's and new medium was added. After three days, MTT (Sigma, M2128) was added at 0.5 mg/ml in medium. After 4 h, MTT was removed and isopropanol and HCl were added to dissolve the MTT crystals for 12-16 h. The absorbance at 595 nm was measured.

proteasome = assay: Proteasomal chymotrypsin-like activity in cell extracts of treated cells; format: cell-based, human; conditions: 40, 80 and 200 μM
Protocol: Chymotrypsin-like activity in cell extracts prepared from treated and untreated cells was determined by in vitro degradation of oligopeptides by the proteasome.

[10] = tested on: Amaranthus caudatus cotyledon/hypocotyl explants; assay: Amaranthus bioassay, betacyanin content; format: in vivo; conditions: betacyanin content at the concentration with highest activity
[11] = tested on: human diploid fibroblasts (HCA cells); assay: Senescence, beta-galactosidase staining of human diploid fibroblasts; format: cell-based
Procedure, shortened: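 HCA fibroblasts at passages 25, 45 and 80 were fixed for 5 min at room temperature in 2% formaldehyde/0.2% glutaraldehyde. They were then incubated at 37 °C without CO2 for 1 to 16 hours with X-gal 1 mg/ml, 5 mM ferri- and ferrocyanide and 2 mM MgCl2 in citric/phosphate buffer, pH 6.0. Blue-stained cells were scored.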

[12] = tested on: Triticum aestivum cv. Hereward leaf tips; assay: Retention of chlorophyll in excised wheat leaf tips; format: in vivo; conditions: chlorophyll retention at the concentration with highest activity
Procedure, shortened: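 Tips of first leaves from 7-day wheat (cv. Hereward) seedlings kept on compound solutions (10^−8 to 10^−4 M, from DMSO stock) for 96 h in the dark at 25 °C. Chlorophyll extracted in 80% ethanol at 80 °C and read at 665 nm. Activity at the best concentration expressed relative to 10^−4 M BAP (100%), five replicates.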

B16-F0 melanoma = assay: Calcein AM cytotoxicity, B16-F0; format: cell-based; conditions: Mus musculus, B16F0, 72 h, read-out: IC 50, B16-F0
Source text: One of the parameters used, as the basis for cytotoxicity assays, is the metabolic activity of viable cells. For example, a microtiter assay, which uses the Calcein AM, is now widely used to quantitate cell proliferation and cytotoxicity. For instance, this assay is used in drug screening programs and in chemosensitivity testing. Because only metabolically active cells cleave Calcein AM, these assays detect viable cells exclusively. The quantity of reduced Calcein AM corresponds to the number of vital cells in the culture.
Human T-lymphoblastic leukemia cell line CEM; promyelocytic HL-60 and monocytic U937 leukemias; breast carcinoma cell lines MCF-7, BT549, MDA-MB-231; glioblastoma U87MG cells; cervical carcinoma cells HELA; sarcoma cells U2OS and Saos2; hepatocellular carcinoma HepG2; mouse fibroblasts NIH3T3; mouse immortalized bone marrow macrophages B2.4 and B10A.4; P388D1 and L1210 leukemia; B16 and B16F10 melanomas were used for routine screening of compounds. The cells were maintained in Nunc/Corning 80 cm^2 plastic tissue culture flasks and cultured in cell culture medium (DMEM with 5 g/l glucose, 2 mM glutamine, 100 U/ml penicillin, 100 μg/ml streptomycin, 10% fetal calf serum and sodium bicarbonate).
The cell suspensions that were prepared and diluted according to the particular cell type and the expected target cell density (2.500-30.000 cells per well based on cell growth characteristics) were added by pipette (80 μl) into 96/well microtiter plates. Inoculates were allowed a pre-incubation period of 24 hours at 37° C. and 5% CO2 for stabilisation. Four-fold dilutions of the intended test concentration were added at time zero in 20 μl aliquots to the microtiter plate wells. Usually, test compound was evaluated at six 4-fold dilutions. In routine testing, the highest well concentration was […], but it can be the matter of change dependent on the agent. All drug concentrations were examined in duplicates. Incubations of cells with the test compounds lasted for 72 hours at 37° C., in 5% CO2 atmosphere and 100% humidity. At the end of incubation period, the cells were assayed by using the Calcein AM. Ten microliters of the stock solution were pipetted into each well and incubated further for 1 hours. Fluorescence (FD) was measured with the Labsystem FIA Reader Fluoroscan Ascent (UK). The tumour cell survival (GI50) was calculated using the following equitation: TCS═(FDdrug exposed well/mean FDcontrol wells)×100%. The GI50 value, the drug concentration lethal to 50% of the tumour cells, was calculated from the obtained dose response curves (FIG. 1).

MCF-7 cell line = assay: Apoptosis in MCF-7, Anexin FITC V / propidium iodide staining; format: cell-based, human; conditions: FIG. 3; 6 h, 20 μM apoptotic cells
Protocol: A MCF-7, apoptotic cells: 6 h, 12, 20 μM, B MCF-7, secondary necrotic cells (i.e. necrosis following apoptosis), 12 h, 12, 40 μM; C MCF-7, necrotic cells, 24 h, 12, 40 μM. Anexin FITC V (Mol. Probes) and propidium iodide staining: anexin—green, PI—red.
Analysed using “Olympus image analysis” after treatment of MCF-7 tumour cells by 6-(2-hydroxy-3-methoxybenzylamino)purine. A,B—control cells without treatment; C,D—apoptotic cells (condensation of chromatin); A,C—fluorescence microscopy; B,D—fluorescence image analysis.

## Oc1ccc(CNc2ncnc3nc[nH]c23)cc1 [para-topolin, 6-(4-hydroxybenzylamino)purine]
Human skin fibroblasts [1]
  conclusion on short-term effects on human skin fibroblasts: beneficial anti-aging effects
Human skin fibroblasts [2]; 6 hours, para 40 μM to 1 mM, ortho 40 to 400 μM, meta 40 to 200 μM
  Percent of cells attached, effect in words: not affected to any significant extent
Human skin fibroblasts [2]; para at 40, 80, 100, 160, 250 and 500 μM
  Overall cell attachment improved (summary): 10-40%
Human skin fibroblasts [3]
  number of prematurely senescent cells, beta-galactosidase staining: did not show any increase
[4]; 200 μM, 7 to 14 days
  growth of senescent cells: no further growth of the cells was observed
[4]; 7 to 14 days of treatment
  numbers of surviving senescent cells: tolerant to para-topolin until 80 μM
[5]; 40 μM-500 μM
  neutral red staining pattern of cells: autophagy
[5]; 80 & 200 μM
  reduction in the macro-molecular turn over rate: 10-15%
[6]; 14 days, ortho and meta 80 μM and above
  appearance of senescent cells on longer treatment: began to shrink and die
[6]; after 7 days of treatment (para: 7 days and 14 days; meta: low concentrations)
  appearance of senescent cells: subtle differences
[7]
  actin staining pattern in senescent cells: no obvious differences
[8]; 40 μM
  Cell growth (summary): not affected
  Cell growth lower: 10%
[8]; 80 μM
  reduction of cell growth: over 40%
[8]; 40 and 80 μM
  appearance of dermal cells, microscopic examination (summary): Healthy appearances of the cells were maintained
[8]; 80, 200 and 500 μM
  Cell growth (summary): reduced
[8]; 200 and 500 μM
  appearance of dermal cells, microscopic examination (summary): toxic effects with enlargement in cell sizes
[8]; 200 and 500 μM, eleven days
  appearance of cells: large in appearance, irregularly arranged and few in numbers
[8]; Giemsa pictures after eleven days
  dose over which cytotoxicity of cells was seen: > 80 µM
[8]; para 200 to 500 μM after 11 days, ortho 200 and 400 μM after 7 days, meta 400 μM
  Cellular growth at higher concentrations: almost a total inhibition
Human skin fibroblasts [9]; 200-500 μM
  reduction in cell survival: 15-25%
Human skin fibroblasts [9]; range 0.01-500 μM
  dose until which not cytotoxic / no toxic effect on survival (MTT): 100 µM
proteasome
  proteasomal activity (chymotrypsin-like), removal of oxidized and abnormal proteins: slight improvement; also recorded: observed in a dose dependent manner

## COc1cccc(CNc2ncnc3nc[nH]c23)c1O [6-(2-hydroxy-3-methoxybenzylamino)purine]
[10]
  activity (%) [10^−5 mol · l^−1 BAP = 100%]: 19 (±3) %
[11]; passage 25
  SENESCENT CELLS (%) HCA25: 4%
[11]; passage 45
  SENESCENT CELLS (%) HCA45: 3%
[11]; passage 80
  SENESCENT CELLS (%) HCA80: 20%
[12]
  Activity (%) [10^−4 mol · l^−1 BAP = 100%]: 34 (±5) %
B16-F0 melanoma
  pIC50: 4.16
MCF-7 cell line
  apoptosis in MCF-7 tumour cells: induced apoptosis
